Data published in ChEMBL document CHEMBL1132082, “Nonsteroidal androgen receptor agonists based on 4-(trifluoromethyl)-2H-pyrano[3,2-g]quinolin-2-one” (Bioorg Med Chem Lett, 1999).

Legend:
[1] = molecular target: T1, Estrogen receptor (Homo sapiens, UniProt Q92731+P03372); test: In vitro antagonistic activity against human estrogen receptor (hER); not active; assay type: functional
[2] = molecular target: T1, Estrogen receptor; test: In vitro antagonistic activity against human estrogen receptor (hER); assay type: functional
[3] = molecular target: T2, Glucocorticoid receptor (Homo sapiens, UniProt P04150); test: In vitro antagonistic activity against human glucocorticoid receptor (hGR); not active; assay type: functional
T2 sequence (P04150 whole entry): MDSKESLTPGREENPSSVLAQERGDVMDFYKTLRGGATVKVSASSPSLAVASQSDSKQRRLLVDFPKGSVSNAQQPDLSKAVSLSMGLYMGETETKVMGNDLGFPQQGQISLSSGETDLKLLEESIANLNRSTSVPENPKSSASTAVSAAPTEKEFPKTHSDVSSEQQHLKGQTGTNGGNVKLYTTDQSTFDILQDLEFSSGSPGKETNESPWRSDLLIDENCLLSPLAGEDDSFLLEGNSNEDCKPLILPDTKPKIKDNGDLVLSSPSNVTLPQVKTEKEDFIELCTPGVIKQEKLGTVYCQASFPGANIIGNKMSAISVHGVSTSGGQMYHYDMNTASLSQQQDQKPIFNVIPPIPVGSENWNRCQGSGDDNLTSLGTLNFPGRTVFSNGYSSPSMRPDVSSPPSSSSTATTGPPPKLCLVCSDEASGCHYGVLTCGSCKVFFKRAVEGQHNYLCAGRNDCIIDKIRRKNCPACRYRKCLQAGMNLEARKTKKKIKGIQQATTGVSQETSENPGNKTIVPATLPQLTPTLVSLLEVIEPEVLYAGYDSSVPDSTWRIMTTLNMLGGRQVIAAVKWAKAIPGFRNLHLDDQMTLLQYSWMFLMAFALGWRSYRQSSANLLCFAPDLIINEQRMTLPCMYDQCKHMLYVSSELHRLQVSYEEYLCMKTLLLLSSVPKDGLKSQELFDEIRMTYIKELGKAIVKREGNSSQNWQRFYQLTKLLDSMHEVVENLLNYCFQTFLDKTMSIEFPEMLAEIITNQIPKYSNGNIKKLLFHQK

[4] = molecular target: T3, Mineralocorticoid receptor (Homo sapiens, UniProt P08235); test: In vitro antagonistic activity against human mineralocorticoid receptor (hMR); not active; assay type: functional
T3 sequence (P08235 whole entry): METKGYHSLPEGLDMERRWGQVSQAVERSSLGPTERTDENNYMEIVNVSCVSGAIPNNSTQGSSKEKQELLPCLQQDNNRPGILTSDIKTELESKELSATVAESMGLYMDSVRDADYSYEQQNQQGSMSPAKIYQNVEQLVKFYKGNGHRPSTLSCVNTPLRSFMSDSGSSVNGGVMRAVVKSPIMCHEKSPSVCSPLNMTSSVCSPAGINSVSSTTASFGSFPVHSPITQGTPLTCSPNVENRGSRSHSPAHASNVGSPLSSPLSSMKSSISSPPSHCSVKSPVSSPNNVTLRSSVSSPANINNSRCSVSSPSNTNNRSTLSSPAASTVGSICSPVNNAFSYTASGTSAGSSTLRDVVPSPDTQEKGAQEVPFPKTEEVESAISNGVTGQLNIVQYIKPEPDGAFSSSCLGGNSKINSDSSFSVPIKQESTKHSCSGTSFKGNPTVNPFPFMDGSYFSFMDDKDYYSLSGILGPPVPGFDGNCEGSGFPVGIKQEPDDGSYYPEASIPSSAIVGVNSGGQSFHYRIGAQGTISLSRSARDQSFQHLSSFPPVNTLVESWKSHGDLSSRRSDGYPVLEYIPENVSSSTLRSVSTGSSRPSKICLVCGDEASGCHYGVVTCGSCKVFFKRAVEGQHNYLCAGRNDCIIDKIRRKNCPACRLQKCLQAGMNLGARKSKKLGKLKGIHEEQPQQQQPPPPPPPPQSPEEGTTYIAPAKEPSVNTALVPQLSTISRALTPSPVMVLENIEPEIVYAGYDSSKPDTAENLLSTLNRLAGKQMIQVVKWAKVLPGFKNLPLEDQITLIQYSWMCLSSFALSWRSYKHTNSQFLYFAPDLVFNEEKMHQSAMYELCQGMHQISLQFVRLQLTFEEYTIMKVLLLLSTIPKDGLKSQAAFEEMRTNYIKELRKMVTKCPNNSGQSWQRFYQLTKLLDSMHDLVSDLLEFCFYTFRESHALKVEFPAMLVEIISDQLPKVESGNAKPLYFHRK

[5] = molecular target: T4, Mineralocorticoid receptor (Homo sapiens) (UniProt P08235); test: In vitro antagonistic activity against human mineralocorticoid receptor (hMR); assay type: functional
T4 sequence (whole entry): T3 sequence (P08235 whole entry)

[6] = molecular target: T5, Androgen receptor (Homo sapiens, UniProt P10275); test: biochemical
T5 sequence (P10275 whole entry): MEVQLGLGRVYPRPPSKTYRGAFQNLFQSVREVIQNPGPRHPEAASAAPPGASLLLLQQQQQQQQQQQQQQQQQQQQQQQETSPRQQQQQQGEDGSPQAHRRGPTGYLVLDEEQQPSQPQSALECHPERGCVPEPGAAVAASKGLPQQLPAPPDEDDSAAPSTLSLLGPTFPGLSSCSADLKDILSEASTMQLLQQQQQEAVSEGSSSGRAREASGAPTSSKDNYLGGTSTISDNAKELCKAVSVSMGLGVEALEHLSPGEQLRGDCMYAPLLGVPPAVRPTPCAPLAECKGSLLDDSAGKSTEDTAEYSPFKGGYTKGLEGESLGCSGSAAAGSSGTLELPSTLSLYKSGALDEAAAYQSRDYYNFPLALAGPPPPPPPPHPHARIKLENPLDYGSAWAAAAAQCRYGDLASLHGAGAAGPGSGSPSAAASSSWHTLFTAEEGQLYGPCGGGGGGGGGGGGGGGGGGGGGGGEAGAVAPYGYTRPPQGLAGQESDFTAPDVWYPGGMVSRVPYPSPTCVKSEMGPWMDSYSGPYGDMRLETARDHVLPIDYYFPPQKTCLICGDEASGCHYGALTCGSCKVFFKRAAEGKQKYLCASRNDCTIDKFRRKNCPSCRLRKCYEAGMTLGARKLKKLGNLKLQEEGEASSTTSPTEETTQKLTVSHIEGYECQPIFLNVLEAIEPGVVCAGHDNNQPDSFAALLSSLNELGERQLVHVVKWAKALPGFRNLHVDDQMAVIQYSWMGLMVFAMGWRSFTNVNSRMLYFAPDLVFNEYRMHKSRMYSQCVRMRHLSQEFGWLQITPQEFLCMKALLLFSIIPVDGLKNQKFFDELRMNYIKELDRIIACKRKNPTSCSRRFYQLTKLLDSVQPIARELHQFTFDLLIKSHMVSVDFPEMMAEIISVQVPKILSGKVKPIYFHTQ
Description: In vitro binding affinity at human androgen receptor transfected into COS cells.

`CCC1CCNc2cc3oc(=O)cc(C(F)(F)F)c3cc21` (stereo not given) gave an IC50 [1] greater than 10 µM, an Efficacy [2] of less than 20% and an IC50 [3] greater than 10 µM. For the same compound, the IC50 [4] was greater than 10 µM, the Efficacy [5] was less than 20% and the IC50 [6] was 0.001 µM.
`CCCC1CCNc2cc3oc(=O)cc(C(F)(F)F)c3cc21` (stereo not given) was tested, and the IC50 [1] was greater than 10 µM, the Efficacy [2] was less than 20% and the IC50 [3] was greater than 10 µM. For the same compound, the IC50 [4] was greater than 10 µM, the Efficacy [5] was less than 20% and the IC50 [6] was 0.005 µM.
`CC1CCNc2cc3oc(=O)cc(C(F)(F)F)c3cc21` (stereo not given) gave an IC50 [1] greater than 10 µM, an Efficacy [2] of less than 20% and an IC50 [3] greater than 10 µM. It also gave an IC50 [4] greater than 10 µM, an Efficacy [5] of less than 20% and an IC50 [6] of 0.001 µM.
In the case of `CCC1Nc2cc3oc(=O)cc(C(F)(F)F)c3cc2CC1C` (stereo not given), the IC50 [1] is reported as greater than 10 µM, the Efficacy [2] is reported as less than 20% and the IC50 [3] is reported as greater than 10 µM. It also gave an IC50 [4] greater than 10 µM, an Efficacy [5] of less than 20% and an IC50 [6] of 0.007 µM.
`O=c1cc(C(F)(F)F)c2cc3c(cc2o1)NCCC3C(F)(F)F` (stereo not given) showed an IC50 [1] greater than 10 µM, an Efficacy [2] of less than 20% and an IC50 [3] greater than 10 µM. For the same compound, the IC50 [4] was greater than 10 µM, the Efficacy [5] was less than 20% and the IC50 [6] was 0.002 µM.
